≈ marks a conversion by molar mass, not a printed value.

The values below come from patent publication US20250275950A1, “RIFAXIMIN AND N-ACETYL CYSTEINE FORMULATIONS” (Cedars-Sinai Medical Center, priority 2022, published 2025).

The assay has as its system E. Coli and Klebsiella. In words: In vitro dilution growth/cidal experiments. The class given is cell-based. The method, then:
In vitro dilution growth/cidal experiments were conducted on E. Coli and Klebsiella to determine doses of rifaximin and NAC, including lowest doses of rifaximin and lowest doses of NAC.

In the case of `CC(=O)N[C@@H](CS)C(=O)O` [NAC, N-acetylcysteine], the “effect of NAC on effectiveness of rifaximin in killing E. coli and Klebsiella” value is listed as “improves the effectiveness of rifaximin”. Consider `CO[C@H]1/C=C/O[C@@]2(C)Oc3c(C)c(O)c4c(O)c(c5c(nc6cc(C)ccn65)c4c3C2=O)NC(=O)/C(C)=C\C=C\[C@H](C)[C@H](O)[C@@H](C)[C@@H](O)[C@@H](C)[C@H](OC(C)=O)[C@@H]1C` [rifaximin], for which the MIC (Escherichia coli, with NAC concentration of 0.125 mg/mL, E. Coli and Klebsiella, organism of the value not specified, read-out: minimal inhibitory concentration (MIC) for rifaximin) was found to be 4 µg/mL (≈ 5.09 µM).
